Consider 1 compound from ChEMBL document CHEMBL1155190, “Identification of a cell-active non-peptide sirtuin inhibitor containing N-thioacetyl lysine” (Bioorg Med Chem Lett, 2009).

A value given as a limit tells only on which side of the number the result lay.

The target of assay [1] is T1, NAD-dependent protein deacetylase sirtuin-1 (Homo sapiens, UniProt Q96EB6).
T1 sequence (Q96EB6 whole entry): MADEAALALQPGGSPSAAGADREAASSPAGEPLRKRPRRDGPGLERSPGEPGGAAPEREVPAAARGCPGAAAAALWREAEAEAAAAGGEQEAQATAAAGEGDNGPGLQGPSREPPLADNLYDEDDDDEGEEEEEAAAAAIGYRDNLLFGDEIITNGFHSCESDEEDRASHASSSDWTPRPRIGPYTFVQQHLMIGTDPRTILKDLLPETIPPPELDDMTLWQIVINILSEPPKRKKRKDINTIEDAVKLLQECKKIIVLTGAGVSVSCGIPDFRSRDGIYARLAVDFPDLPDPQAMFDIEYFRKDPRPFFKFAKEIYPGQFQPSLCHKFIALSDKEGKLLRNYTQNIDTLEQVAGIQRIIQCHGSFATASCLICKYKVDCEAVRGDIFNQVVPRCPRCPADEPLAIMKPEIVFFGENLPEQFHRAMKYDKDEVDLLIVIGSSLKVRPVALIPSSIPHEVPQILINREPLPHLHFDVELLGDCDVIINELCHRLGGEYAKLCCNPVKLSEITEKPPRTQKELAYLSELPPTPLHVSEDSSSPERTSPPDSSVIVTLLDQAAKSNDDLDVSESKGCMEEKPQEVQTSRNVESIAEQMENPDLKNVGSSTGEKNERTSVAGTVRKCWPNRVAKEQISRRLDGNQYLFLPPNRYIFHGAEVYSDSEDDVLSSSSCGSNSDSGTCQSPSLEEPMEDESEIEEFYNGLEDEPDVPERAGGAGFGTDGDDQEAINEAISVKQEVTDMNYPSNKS
Briefly: Inhibition of human recombinant SIRT1 after 60 mins by fluorimetric analysis.

Assay [2] has as its target T2, NAD-dependent protein deacetylase sirtuin-2 (Homo sapiens, UniProt Q8IXJ6).
T2 sequence (Q8IXJ6 whole entry): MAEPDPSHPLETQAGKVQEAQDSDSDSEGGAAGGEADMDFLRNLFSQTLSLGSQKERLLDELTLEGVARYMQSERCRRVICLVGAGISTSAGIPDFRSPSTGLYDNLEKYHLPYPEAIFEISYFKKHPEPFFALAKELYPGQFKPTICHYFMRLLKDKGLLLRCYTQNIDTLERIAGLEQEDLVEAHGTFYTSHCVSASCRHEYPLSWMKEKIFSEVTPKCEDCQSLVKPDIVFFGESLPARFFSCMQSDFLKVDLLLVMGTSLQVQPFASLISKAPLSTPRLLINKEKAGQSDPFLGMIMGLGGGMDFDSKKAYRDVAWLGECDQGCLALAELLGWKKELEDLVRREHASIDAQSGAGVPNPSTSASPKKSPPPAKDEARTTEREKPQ
Briefly: Inhibition of human recombinant SIRT2 after 60 mins by fluorimetric analysis.

Assay [3] concerns the target T3, NAD-dependent protein deacetylase sirtuin-3, mitochondrial (Homo sapiens, UniProt Q9NTG7).
T3 sequence (Q9NTG7 whole entry): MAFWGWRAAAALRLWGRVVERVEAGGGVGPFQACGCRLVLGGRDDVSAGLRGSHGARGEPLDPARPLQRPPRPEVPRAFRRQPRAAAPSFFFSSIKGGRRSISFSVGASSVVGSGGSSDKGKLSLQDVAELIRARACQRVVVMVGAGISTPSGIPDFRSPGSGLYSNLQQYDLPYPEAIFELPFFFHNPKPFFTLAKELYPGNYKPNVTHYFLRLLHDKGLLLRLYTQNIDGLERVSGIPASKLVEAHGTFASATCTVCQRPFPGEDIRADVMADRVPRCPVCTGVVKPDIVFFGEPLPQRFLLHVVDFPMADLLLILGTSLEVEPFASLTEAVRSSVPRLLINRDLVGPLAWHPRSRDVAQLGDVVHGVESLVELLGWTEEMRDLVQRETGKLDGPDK
The experiment in a line: Inhibition of human recombinant SIRT3 after 60 mins by fluorimetric analysis.

One may read the IC50 as the point on the concentration scale where inhibition reaches its midpoint. Take `CC(=S)NCCCC[C@H](NC(=O)OCc1ccccc1)C(=O)Nc1ccccc1`: the IC50 is 2.7 µM in assay [1], 23 µM in assay [2] and above 100 µM in assay [3].
